Measured values as given in ChEMBL document CHEMBL1124647, “Conformational analysis and molecular modeling of 1-phenyl-, 4-phenyl-, and 1-benzyl-1,2,3,4-tetrahydroisoquinolines as D1 dopamine receptor ligands” (J Med Chem, 1989).

Assays:
[1] = DSAC inhibitory potency obtained by the conversion of [32P]-ATP to [32P]-cAMP
D(2) dopamine receptor = D(2) dopamine receptor (Homo sapiens, UniProt P14416); test: Binding potency of compound for Dopamine receptor D2 by displacement of [3H]spiperone
D(1A) dopamine receptor = D(1A) dopamine receptor (Homo sapiens, UniProt P21728); test: Binding potency of compound for Dopamine receptor D1 by displacing [3H]SCH-23390 radioligand
D(1A) dopamine receptor, sequence (P21728 whole entry): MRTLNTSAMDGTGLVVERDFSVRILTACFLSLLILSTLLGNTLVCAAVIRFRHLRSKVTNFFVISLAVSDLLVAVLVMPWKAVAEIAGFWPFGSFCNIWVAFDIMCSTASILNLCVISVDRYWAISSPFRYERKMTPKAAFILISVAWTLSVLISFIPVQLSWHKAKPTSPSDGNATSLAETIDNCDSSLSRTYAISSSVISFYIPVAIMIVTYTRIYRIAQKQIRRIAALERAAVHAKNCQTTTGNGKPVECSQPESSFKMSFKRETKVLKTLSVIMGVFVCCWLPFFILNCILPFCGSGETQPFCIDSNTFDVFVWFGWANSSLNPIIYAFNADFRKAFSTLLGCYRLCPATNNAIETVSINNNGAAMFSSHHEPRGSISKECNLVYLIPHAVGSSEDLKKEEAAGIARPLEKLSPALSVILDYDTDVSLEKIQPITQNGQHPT

D(2) dopamine receptor, sequence (P14416 whole entry): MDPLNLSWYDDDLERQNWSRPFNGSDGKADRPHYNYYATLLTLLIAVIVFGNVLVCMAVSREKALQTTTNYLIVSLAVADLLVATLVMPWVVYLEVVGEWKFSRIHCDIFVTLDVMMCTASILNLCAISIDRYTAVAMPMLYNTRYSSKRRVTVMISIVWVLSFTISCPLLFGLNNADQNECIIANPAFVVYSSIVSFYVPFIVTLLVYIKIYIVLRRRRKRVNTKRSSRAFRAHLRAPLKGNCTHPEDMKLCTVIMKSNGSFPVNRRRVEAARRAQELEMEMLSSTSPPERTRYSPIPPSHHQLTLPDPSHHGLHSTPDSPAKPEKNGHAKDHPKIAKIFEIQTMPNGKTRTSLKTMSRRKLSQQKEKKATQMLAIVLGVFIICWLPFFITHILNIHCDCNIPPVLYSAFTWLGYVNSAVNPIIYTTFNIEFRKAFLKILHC

Log Ki [1]	Ki (D(2) dopamine receptor) [nM]	Ki (D(1A) dopamine receptor) [nM]	Structure (SMILES)
-6.25	19100	447	CN1CCc2cc(Cl)c(O)cc2[C@H]1c1ccccc1
-6.69	1910	178	CCCN1CCc2cc(Cl)c(O)cc2[C@@H]1c1ccccc1
-8.18	1860	6.61	CN1CCc2cc(Cl)c(O)cc2[C@@H]1c1ccccc1
-8.2	145	26.9	CN1CCc2cc(Cl)c(O)cc2[C@@H]1Cc1ccccc1
-6.96	3720	141	Oc1cc2c(cc1Cl)CCN[C@H]2c1ccccc1
-9.33			CN1CCc2cc(Cl)c(O)cc2[C@@H](c2ccccc2)C1 [SCH-23390]

Structure (SMILES)	Log Ki [1]	Ki (D(2) dopamine receptor) [nM]	Ki (D(1A) dopamine receptor) [nM]
CN1Cc2cc(Cl)c(O)cc2[C@H](c2ccccc2)C1	-6.99	263	87.1
Oc1cc2c(cc1Cl)CNC[C@H]2c1ccccc1	-6.2	1820	282
